A short description of the data set: Binding isotherms of surfactants to block copolymer (ion-selective electrode). Format: physicochemical. The conditions noted are these: FIG. 1, dodecyl- versus cetyl- substituent. An excerpt:
While not wishing to be bound by any particular theory, it is believed that the above-described surfactants and block copolymers of opposite charge form stable complexes due to cooperative binding. (See, e.g., Goddard, In Interactions of Surfactants with Polymers and Proteins. Goddard and Ananthapadmanabhan, Eds., pp. 171 et seq., CRC Press, Boca Raton, Ann Arbor, London, Tokyo, 1992). Cooperative binding occurs in the sense that binding of surfactant molecules to the block copolymer is enhanced by the presence of other molecules of the same or a different surfactant already bound to the same copolymer. According to the cooperative binding mechanism which is believed to underlie this invention, surfactant binds electrostatically to the oppositely charged P-type segments of the block copolymer to form supramolecular complexes. These complexes are cooperatively stabilized by the interactions of the hydrophobic parts of surfactant molecules bound to the same P-type segment with each other. Indeed, it appears that without these hydrophobic interactions, formation of the desired complex would not occur. FIG. 1 presents the binding isotherms for interaction of cetylpyridinium bromide and dodecylpyridinium bromide with the polyethylene oxide-block-poly(sodium methacrylate) block copolymer. […] This binding mechanism is, in particular, characteristic for surface active biological agents. […]

Take `CCCCCCCCCCCC[n+]1ccccc1.[Br-]` [dodecylpyridinium bromide]: the “stability of the complex with polyethylene oxide-block-poly(sodium methacrylate)” value is reported as “decreases the stability of the complex more than ten-fold”.

The values above are taken from patent US7056532B1, “Compositions for delivery of biological agents and methods for the preparation thereof” (Univ. Nebraska Bd. of Regents, priority 1997, dated 2006).
